Legend:
Complement factor B = Complement factor B (Homo sapiens, UniProt P00751); test: Optical surface plasmon resonance (SPR) binding affinity assay
Protocol: The SPR experiment was conducted at 25° C. using PBS buffer supplemented with 0.05% (v/v) P20 and 5% DMSO as the running buffer. The Biacore 8K instrument from GE Healthcare was employed for analysis. The CM3 chip (GE Healthcare) was activated with 400 mM EDC and 100 mM NHS at a flow rate of 30 μL/min for 420 s.

[1] = test system: LPS-induced complement activation; test: In vivo efficacy assay of LPS-induced complement activation in mice; conditions: female C57BL/6J mice, LPS 100 μg intraperitoneal, PO
Protocol: Experimental objective: To investigate the inhibitory effect of the compounds of the present disclosure on complement activation in mice induced by LPS stimulation.
Experimental animals: Female C57BL/6J mice, 7 to 9 weeks old, weighing between 17 to 23 g.
Experimental procedure: 100 μg of lipopolysaccharide (LPS) in Salmonella typhimurium (Sigma) dissolved in 100 μL of sterile PBS was intraperitoneally injected to induce complement activation in mice. Negative control animals were intraperitoneally injected 100 μL of sterile PBS and administered alone by tube feeding (PO). Positive control animals were intraperitoneally injected LPS and PO drug vehicles (0.5% (w/v) methyl cellulose and 0.5% (v/v) Tween 80).
Sample collection: 0.3 mL of blood samples were collected from the orbital venous plexus. All blood samples were added to commercially available EDTA-K2 anticoagulant tubes with a specification of 1.5 mL. After collection, within half an hour, the blood sample was centrifuged at 4° C., 3000 g for 10 min to aspirate the supernatant plasma, which was put in dry ice immediately, and stored in a refrigerator at −80° C. for Western blot analysis of downstream C3d protein levels after complement activation.
Sample analysis: Mouse plasma (5 μL)+Lysis buffer (27.5 μL)+Loading buffer (12.5 μL)+Reducing buffer (5 μL) were mixed well and incubated at 100° C. for 15 min with a loading volume of 5 μL/well, i.e., a loading volume of plasma of 0.5 μL per well.
Test compounds: positive compound LNPO23, the final product of Example 158, the final products (compound 159A and compound 159B) of Example 159, and compound 11 of Example 75.

[2] = test system: Sheep Anti-Rat Fx1A Serum induced Heymann nephritis; test: In vivo efficacy assay of passive Heymann nephritis in rats; conditions: male SD rats, intragastric twice a day for 14 days, 5, 20 and 60 mpk; LNP023 60 mpk
Excerpt: Experimental objective: To investigate the ability of the compounds of the present disclosure to improve renal function of Sheep Anti-Rat Fx1A Serum induced Heymann nephritis in rats, including the evaluation of reducing proteinuria level and improving renal tissue damage.
Experimental animals: Male SD rats, 7 to 10 weeks old, weighing between 200 to 300 g.
Urine was collected from rats on D-2 before administration. On D1, the first day of the experiment, animals in the control group (group 1) were administered 5 mL/kg of Sheep Non-Immune serum via a single tail vein injection; animals in the model and administration groups (groups 2 to 6) were administered 5 mL/kg of Sheep Anti-Rat Fx1A Serum via a single tail vein injection.
The rats were treated by intragastric administration twice a day with an interval of 8 hours and a volume of 10 mL/kg. On D1, 1 hour before modeling, animals in groups 1 and 2 were administered blank vehicle 20% PEG400/10% Solutol/70% water; animals in group 3 were administered LNP023 (60 mpk); animals in groups 4 to 6 were administered different concentrations of synthetic compounds (5 mpk, 20 mpk, and 60 mpk); 8 hours after the first administration, each group was administered again with the same dose and volume as the first administration. From D2 to D14, animals in each group were administered different compounds or vehicles for 14 consecutive days (including the first day) according to the dose, volume, administration method, and frequency on D1.
Urine collection: Urine samples were collected from rats on D-2 before administration, and 2 to 4 hours and 4 to 6 hours after the first administration on D4, D6, D8, D11, and D14 after administration, transferred to EP tubes and stored in a refrigerator at −80° C. to −60° C. for the detection of urine protein and creatinine in rats.
Kidney sample collection: All animals were euthanized with CO2 inhalation anesthesia on Day 15, and bilateral kidneys were collected. The left kidney was cut transversely, and the right kidney was cut longitudinally. Half of the transversely cut kidney (left side) and half of the longitudinally cut kidney (right side) were fixed in formalin (placed in the same EP tube).
4. […] Urine total protein (uTP) in rats was detected without dilution; if exceeding the upper detection limit, it was 10-fold diluted (10 μL of sample+90 μL of saline (0.9% saline)) first (Decrease mode); if still exceeding the upper detection limit after 10-fold dilution, it was 100-fold diluted (2 μL of sample+198 μL of saline (0.9% saline)) (Increase mode). Data were read by the analytical instrument HITACHI LST008AS(P). • (2) Kidney pathological scoring: The degree of drug damage to rat kidneys (paraffin sections) was analyzed by HE staining. […]

Sequence of Complement factor B (P00751 26-764): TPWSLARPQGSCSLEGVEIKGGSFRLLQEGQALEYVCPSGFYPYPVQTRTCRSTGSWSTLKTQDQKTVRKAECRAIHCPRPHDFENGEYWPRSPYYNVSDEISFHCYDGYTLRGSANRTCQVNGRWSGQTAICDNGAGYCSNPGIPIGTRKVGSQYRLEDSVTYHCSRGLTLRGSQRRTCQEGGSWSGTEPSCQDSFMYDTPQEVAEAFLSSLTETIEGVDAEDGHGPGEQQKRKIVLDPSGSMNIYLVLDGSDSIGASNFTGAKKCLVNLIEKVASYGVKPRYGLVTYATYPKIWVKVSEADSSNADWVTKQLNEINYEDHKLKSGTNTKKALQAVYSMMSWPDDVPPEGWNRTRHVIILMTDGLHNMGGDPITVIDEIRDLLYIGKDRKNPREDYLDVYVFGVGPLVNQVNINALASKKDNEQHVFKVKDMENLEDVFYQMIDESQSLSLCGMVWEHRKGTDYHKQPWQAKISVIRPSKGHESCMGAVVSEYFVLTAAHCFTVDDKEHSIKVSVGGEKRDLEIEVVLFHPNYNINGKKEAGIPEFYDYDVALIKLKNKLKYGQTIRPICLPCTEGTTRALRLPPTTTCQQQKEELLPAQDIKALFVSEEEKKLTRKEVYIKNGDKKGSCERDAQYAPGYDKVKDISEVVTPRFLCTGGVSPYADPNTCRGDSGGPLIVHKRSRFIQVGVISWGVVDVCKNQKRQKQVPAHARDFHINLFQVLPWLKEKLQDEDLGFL

SMILES | Kd (Complement factor B) [nM] | inhibition of LPS-induced complement activation (plasma C3d levels), compared with LNP023 [1] | performance in the kidney disease model through urine and kidney pathology analysis, compared with LNP023 [2]
CCCC1CCN(C(=O)c2c(OC)cc(C)c3[nH]ccc23)[C@H](c2ccc(C(=O)O)cc2)C1 (mixture of isomers) [Final product of Example 158, 4-((2S)-1-(5-Methoxy-7-methyl-1H-indole-4-carbonyl)-4-propylpiperidin-2-yl)benzoic acid] | 5 to 20 | superior or equivalent | performed better
CCO[C@H]1CCN(Nc2c(OC)cc(C)c3[nH]ccc23)[C@H](c2ccc(C(=O)O)cc2)C1 [Compound 11 of Example 75, 4-((2S,4S)-4-Ethoxy-1-((5-methoxy-7-methyl-1H-indol-4-yl)amino)piperidin-2-yl)benzoic acid] | 5 to 20 | superior or equivalent | performed better
CCCC1CCN(C(=O)c2c(OC)cc(C)c3[nH]ccc23)C(c2ccc(C(=O)O)cc2)C1 (single isomer, unassigned) [Compound 159A] | 5 to 20 | superior or equivalent | performed better

Reference: patent US20260184689A1, “PIPERIDINE-SUBSTITUTED BENZOIC ACID COMPOUND, AND PHARMACEUTICAL COMPOSITION AND USE THEREOF” (SHANGHAI YISHENG BIOPHARMACEUTICAL COMPANY LIMITED, priority 2022, published 2026)
